Target: T1, EGFR (HCC827 cells) (Homo sapiens, UniProt P00533, DEL746-750)
T1 construct: endogenous in cells; host or cells: HCC827
Experiment: EGFR degradation HTRF assay, HCC827 cells
Type: cell-based
Conditions: HCC827, 16h treatment; for Dmax: maximum percentage of degradation
Protocol: BaF3 WT(wild type), BaF3-LTC(L858R/T790M/C797S) and BaF3-DTC(Del19/T790M/C797S) cells are treated with compounds diluted in 0.2% DMSO cell culture medium and incubate for 16h, 37° C., 5% CO2, H1975-#36, H1975-#28, H1975-#23 and HCC827 cells are treated with compounds diluted in 0.2% DMSO cell culture medium on day 2, incubate for 16h, 37° C., 5% CO2.the final concentriation of compounds in all assay is start with 10 uM, 5-fold dilution, total 8 doses were included.
After 16h treatment, add HTRF lysis buffer to each well; seal the plate and incubate 1 hour at room temperature on a plate shaker; Once the cells are lysed, 16 μL of cell lysate are transferred to a PE 384-well HTRF detection plate; 4 μL of pre-mixed HTRF antibodies are added to each well; Cover the plate with a plate sealer, spin 1000 rpm for 1 min, Incubate overnight at room temperature; Read on BMG PheraStar with HTRF protocol (337 nm-665 nm-620 nm).
The inhibition (degradation) percentage of the compound was calculated by the following equation: Inhibition percentage of Compound=100-100×(Signal-low control)/(High control-low control), wherein signal=each test compound group
High control=Cell group with added DMSO and without compound, indicating microplate readings without EGFR degradation;
Dmax is the maximum percentage of inhibition (degradation).
The IC50 (DC50) value of a compound can be obtained by fitting the following equation
Y=Bottom+(TOP−Bottom)/(1+((IC50/X)^hillslope))
Wherein, X and Y are known values, and IC50, Hillslope, Top and Bottom are the parameters obtained by fitting with software. Y is the inhibition percentage (calculated from the equation), X is the concentration of the compound; IC50 is the concentration of the compound when the 50% inhibition is reached. The smaller the IC50 value is, the stronger the inhibitory ability of the compound is. Vice versa, the higher the IC50 value is, the weaker the inhibitory ability of the compound is; Hillslope represents the slope of the fitted curve, generally around 1*; Bottom represents the minimum value of the curve obtained by data fitting, which is generally 0%±20%; Top represents the maximum value of the curve obtained by data fitting, which is generally 100%±20%. The experimental data were fitted by calculating and analyzing with Dotmatics data analysis software.

T1 sequence (P00533 with tags, fused parts or gaps DEL746-750): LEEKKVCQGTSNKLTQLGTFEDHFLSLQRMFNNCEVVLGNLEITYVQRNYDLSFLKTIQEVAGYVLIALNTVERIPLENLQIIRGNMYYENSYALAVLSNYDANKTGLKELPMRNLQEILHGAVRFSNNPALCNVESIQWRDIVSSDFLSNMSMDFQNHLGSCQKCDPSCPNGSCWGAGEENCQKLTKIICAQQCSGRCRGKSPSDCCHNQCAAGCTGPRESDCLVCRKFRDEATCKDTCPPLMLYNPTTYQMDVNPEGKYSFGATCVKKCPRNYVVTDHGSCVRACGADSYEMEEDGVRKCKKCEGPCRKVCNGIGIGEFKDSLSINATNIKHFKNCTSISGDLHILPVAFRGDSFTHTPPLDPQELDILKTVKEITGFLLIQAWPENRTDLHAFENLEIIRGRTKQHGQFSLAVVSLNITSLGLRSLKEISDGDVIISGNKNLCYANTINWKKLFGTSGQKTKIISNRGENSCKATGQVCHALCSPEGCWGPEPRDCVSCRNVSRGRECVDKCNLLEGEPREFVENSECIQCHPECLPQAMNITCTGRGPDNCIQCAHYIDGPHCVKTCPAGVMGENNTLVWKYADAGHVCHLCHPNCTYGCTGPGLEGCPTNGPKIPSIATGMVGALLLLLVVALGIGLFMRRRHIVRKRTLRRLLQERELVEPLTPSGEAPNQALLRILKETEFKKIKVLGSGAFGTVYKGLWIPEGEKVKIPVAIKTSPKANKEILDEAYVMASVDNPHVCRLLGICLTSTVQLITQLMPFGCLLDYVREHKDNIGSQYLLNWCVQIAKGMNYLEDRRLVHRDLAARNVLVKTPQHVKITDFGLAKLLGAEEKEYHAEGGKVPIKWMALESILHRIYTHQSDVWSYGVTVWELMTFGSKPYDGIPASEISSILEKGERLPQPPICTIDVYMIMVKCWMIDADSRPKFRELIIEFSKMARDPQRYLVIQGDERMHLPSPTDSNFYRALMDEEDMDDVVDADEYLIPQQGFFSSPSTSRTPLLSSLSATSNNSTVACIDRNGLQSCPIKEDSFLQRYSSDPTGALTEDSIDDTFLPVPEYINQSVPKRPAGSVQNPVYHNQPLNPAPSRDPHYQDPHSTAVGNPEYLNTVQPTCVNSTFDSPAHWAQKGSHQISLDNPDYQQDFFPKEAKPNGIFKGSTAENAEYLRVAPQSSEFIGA

| Compound | DC50 | Dmax |
| --- | --- | --- |
| COc1cc(N2CCN(CCOc3ccc(C4CCC(=O)NC4=O)cc3)CC2)c(C)cc1Nc1ncc(Br)c(Nc2ccc3nccnc3c2P(C)(C)=O)n1 (centres unmarked) [Example 91, 3-(4-(2-(4-(4-((5-bromo-4-((5-(dimethylphosphoryl)quinoxalin-6-yl)amino)pyrimidin-2-yl)amino)-5-methoxy-2-methylphenyl)piperazin-1-yl)ethoxy)phenyl)piperidine-2,6-dione] | 90.4 nM | 73.5% |
| COc1cc(N2CCC(N(C)CCc3ccc(C4CCC(=O)NC4=O)cn3)CC2)c(C)cc1Nc1ncc(Br)c(Nc2ccc3nccnc3c2P(C)(C)=O)n1 (centres unmarked) [Example 74, 3-(6-(2-((1-(4-((5-bromo-4-((5-(dimethylphosphoryl)quinoxalin-6-yl)amino)pyrimidin-2-yl)amino)-5-methoxy-2-methylphenyl)piperidin-4-yl)(methyl)amino)ethyl)pyridin-3-yl)piperidine-2,6-dione] | 57.2 nM | 85.2% |
| COc1cc(N2CCC(N3CCN(C(=O)C4CCN(CC5CCN(c6ccc7c(c6)C(=O)N(C6CCC(=O)NC6=O)C7=O)CC5)CC4)CC3)CC2)ccc1Nc1ncc(Cl)c(Nc2ccccc2NS(C)(=O)=O)n1 (centres unmarked) [Example 142, N-(2-((5-chloro-2-((4-(4-(4-(1-((1-(2-(2,6-dioxopiperidin-3-yl)-1,3-dioxoisoindolin-5-yl)piperidin-4-yl)methyl)piperidine-4-carbonyl)piperazin-1-yl)piperidin-1-yl)-2-methoxyphenyl)amino)pyrimidin-4-yl)amino)phenyl)methanesulfonamide] | 6.22 nM | 89.4% |
| COc1cc(N2CCC(N(C)CCC3CCN(c4ccc(N5CCC(=O)NC5=O)cc4)CC3)CC2)c(C)cc1Nc1ncc(Br)c(Nc2ccc3nccnc3c2P(C)(C)=O)n1 [Example 80, 1-(4-(4-(2-((1-(4-((5-bromo-4-((5-(dimethylphosphoryl)quinoxalin-6-yl)amino)pyrimidin-2-yl)amino)-5-methoxy-2-methylphenyl)piperidin-4-yl)(methyl)amino)ethyl)piperidin-1-yl)phenyl)dihydropyrimidine-2,4(1H,3H)-dione] | 35.9 nM | 74.4% |
| CCc1cc(Nc2ncc(Br)c(Nc3ccc4nccnc4c3P(C)(C)=O)n2)c(OC)cc1N1CCC(N2CCN(CCCOc3ccc(C4CCC(=O)NC4=O)cc3)CC2)CC1 (centres unmarked) [Example 18, 3-(4-(3-(4-(1-(4-((5-bromo-4-((5-(dimethylphosphoryl)quinoxalin-6-yl)amino)pyrimidin-2-yl)amino)-2-ethyl-5-methoxyphenyl)piperidin-4-yl)piperazin-1-yl)propoxy)phenyl)piperidine-2,6-dione] | 15.4 nM | 77.5% |
| COc1cc(N2CCC(N(C)CCc3ccc(C4CCC(=O)NC4=O)cc3)CC2)c(C)cc1Nc1ncc(Br)c(Nc2ccc3nccnc3c2P(C)(C)=O)n1 (centres unmarked) [Example 75, 3-(4-(2-((1-(4-((5-bromo-4-((5-(dimethylphosphoryl)quinoxalin-6-yl)amino)pyrimidin-2-yl)amino)-5-methoxy-2-methylphenyl)piperidin-4-yl)(methyl)amino)ethyl)phenyl)piperidine-2,6-dione] | 50.6 nM | 72.1% |
| COc1cc(N2CCC(N(C)CCOc3ccc(C4CCC(=O)NC4=O)cc3)CC2)c(C)cc1Nc1ncc(Br)c(Nc2ccc3nccnc3c2P(C)(C)=O)n1 (centres unmarked) [Example 76, 3-(4-(2-((1-(4-((5-bromo-4-((5-(dimethylphosphoryl)quinoxalin-6-yl)amino)pyrimidin-2-yl)amino)-5-methoxy-2-methylphenyl)piperidin-4-yl)(methyl)amino)ethoxy)phenyl)piperidine-2,6-dione] | 30.5 nM | 77.1% |
| CCc1cc(Nc2ncc(Br)c(Nc3ccc4nccnc4c3P(C)(C)=O)n2)c(OC)cc1N1CCC(N2CCN(C(=O)CN3CCN(c4ccc5c(c4)C(=O)N(C4CCC(=O)NC4=O)C5)CC3)CC2)CC1 (centres unmarked) [Example 68, 3-(6-(4-(2-(4-(1-(4-((5-bromo-4-((5-(dimethylphosphoryl)quinoxalin-6-yl)amino)pyrimidin-2-yl)amino)-2-ethyl-5-methoxyphenyl)piperidin-4-yl)piperazin-1-yl)-2-oxoethyl)piperazin-1-yl)-1-oxoisoindolin-2-yl)piperidine-2,6-dione] | 13.1 nM | 64.3% |
| COc1cc(N2CCC(N3CCN(C(=O)CCCCN4CCN(c5ccc6c(c5)C(=O)N(C5CCC(=O)NC5=O)C6=O)CC4)CC3)CC2)ccc1Nc1ncc(Cl)c(Nc2ccccc2NS(C)(=O)=O)n1 (centres unmarked) [Example 141, N-(2-((5-chloro-2-((4-(4-(4-(5-(4-(2-(2,6-dioxopiperidin-3-yl)-1,3-dioxoisoindolin-5-yl)piperazin-1-yl)pentanoyl)piperazin-1-yl)piperidin-1-yl)-2-methoxyphenyl)amino)pyrimidin-4-yl)amino)phenyl)methanesulfonamide] | 19.2 nM | 82% |
| COc1cc(N2CCN(CCCOc3ccc(OC4CCC(=O)NC4=O)cc3)CC2)c(C)cc1Nc1ncc(Br)c(Nc2ccc3nccnc3c2P(C)(C)=O)n1 (centres unmarked) [Example 92, 3-(4-(3-(4-(4-((5-bromo-4-((5-(dimethylphosphoryl)quinoxalin-6-yl)amino)pyrimidin-2-yl)amino)-5-methoxy-2-methylphenyl)piperazin-1-yl)propoxy)phenoxy)piperidine-2,6-dione] | 306 nM | 76.8% |
| COc1cc(N2CCN(CCc3ccc(C4CCC(=O)NC4=O)cn3)CC2)c(C)cc1Nc1ncc(Br)c(Nc2ccc3nccnc3c2P(C)(C)=O)n1 (centres unmarked) [Example 87, 3-(6-(2-(4-(4-((5-bromo-4-((5-(dimethylphosphoryl)quinoxalin-6-yl)amino)pyrimidin-2-yl)amino)-5-methoxy-2-methylphenyl)piperazin-1-yl)ethyl)pyridin-3-yl)piperidine-2,6-dione] | 57.5 nM | 86.2% |

Results, then the molecule that gave them:

| DC50 | Dmax | Compound |
| --- | --- | --- |
| 68.3 nM | 80.1% | COc1cc(N2CCC(NCCCCCc3ccc(C4CCC(=O)NC4=O)cc3)CC2)ccc1Nc1ncc(Cl)c(Nc2ccccc2N(C)S(C)(=O)=O)n1 (centres unmarked) [Example 131, N-(2-((5-chloro-2-((4-(4-((5-(4-(2,6-dioxopiperidin-3-yl)phenyl)pentyl)amino)piperidin-1-yl)-2-methoxyphenyl)amino)pyrimidin-4-yl)amino)phenyl)-N-methylmethanesulfonamide] |
| 189 nM | 79.6% | COc1cc(N2CCC(N3CCN(CCCOc4ccc(OC5CCC(=O)NC5=O)cc4)CC3)CC2)ccc1Nc1ncc(Cl)c(Nc2ccccc2P(C)(C)=O)n1 (centres unmarked) [Example 109, 3-(4-(3-(4-(1-(4-((5-chloro-4-((2-(dimethylphosphoryl)phenyl)amino)pyrimidin-2-yl)amino)-3-methoxyphenyl)piperidin-4-yl)piperazin-1-yl)propoxy)phenoxy)piperidine-2,6-dione] |
| 81.6 nM | 80.8% | COc1cc(N2CCC(N3CCN(CCc4ccc(N5CCC(=O)NC5=O)cc4)CC3)CC2)ccc1Nc1ncc(Cl)c(Nc2ccccc2N(C)S(C)(=O)=O)n1 [Example 124, N-(2-((5-chloro-2-((4-(4-(4-(4-(2,4-dioxotetrahydropyrimidin-1(2H)-yl)phenethyl)piperazin-1-yl)piperidin-1-yl)-2-methoxyphenyl)amino)pyrimidin-4-yl)amino)phenyl)-N-methylmethanesulfonamide] |
| 6.37 nM | 69.2% | COc1cc(N2CCC(N3CCN(C(=O)CC4CCN(c5ccc(C6CCC(=O)NC6=O)cc5)CC4)CC3)CC2)ccc1Nc1ncc(Cl)c(Nc2ccccc2N(C)S(C)(=O)=O)n1 (centres unmarked) [Example 122, N-(2-((5-chloro-2-((4-(4-(4-(2-(1-(4-(2,6-dioxopiperidin-3-yl)phenyl)piperidin-4-yl)acetyl)piperazin-1-yl)piperidin-1-yl)-2-methoxyphenyl)amino)pyrimidin-4-yl)amino)phenyl)-N-methylmethanesulfonamide] |
| 16.6 nM | 82.2% | COc1cc(N2CCC(N3CCN(CCc4ccc(NC5CCC(=O)NC5=O)cc4)CC3)CC2)ccc1Nc1ncc(Cl)c(Nc2ccccc2P(C)(C)=O)n1 (centres unmarked) [Example 108] |

— patent publication US20230265116A1, “DEGRADATION OF (EGFR) BY CONJUGATION OF EGFR INHIBITORS WITH E3 LIGASE LIGAND AND METHODS OF USE” (BEIGENE, LTD., priority 2020, published 2023)
